PMC7413254 (Nature Communications, 2020)

Tests used:
Format in all cases: cell-based
[1] = target: T1, PfCRT^Ecu1110 (Plasmodium falciparum, UniProt Q9N623, A220S/I356L/K76T/N326D); assay: [3H]CQ uptake into Xenopus oocytes, cis-inhibition by unlabelled solute; conditions: for PfCRT-mediated [3H]CQ transport, cis-inhibition (% PfCRTEcu1110 control): PfCRTEcu1110 oocytes, background [3H]CQ accumulation subtracted, normalised to oocyte type control; for [3H]CQ transport (% PfCRTEcu1110 control), cis-inhibition, PfCRTEcu1110: PfCRT-mediated component (background subtracted), sheet title says normalised to PfCRTDd2 control, mean ± SEM, SEM
T1 sequence (Q9N623 whole entry A220S/I356L/K76T/N326D): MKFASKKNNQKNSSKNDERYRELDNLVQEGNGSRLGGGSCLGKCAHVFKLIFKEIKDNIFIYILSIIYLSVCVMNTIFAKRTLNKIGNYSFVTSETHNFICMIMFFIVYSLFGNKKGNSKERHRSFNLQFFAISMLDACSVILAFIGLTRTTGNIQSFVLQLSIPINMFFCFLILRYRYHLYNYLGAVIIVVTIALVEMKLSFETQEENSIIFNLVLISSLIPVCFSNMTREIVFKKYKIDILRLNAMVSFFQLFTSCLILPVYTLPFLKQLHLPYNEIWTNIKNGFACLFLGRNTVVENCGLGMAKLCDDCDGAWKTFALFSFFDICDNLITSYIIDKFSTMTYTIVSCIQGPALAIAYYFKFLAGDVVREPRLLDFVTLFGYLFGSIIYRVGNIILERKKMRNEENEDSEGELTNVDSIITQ
Method in brief: (§1)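 Washed oocytes (ten per treatment) were exposed to label in pH 5.5 ND96 for 1.5 h at 27.5 °C. Buffer was then removed, cells rinsed in ice-cold ND96, lysed in SDS and counted.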

[2] = target: T2, PfCRT^Dd2 (Plasmodium falciparum, UniProt Q9N623, A220S/I356T/K76T/M74I/N326S/N75E/Q271E/R371I); assay: as above; conditions: PfCRTDd2 oocytes, background [3H]CQ accumulation subtracted, normalised to oocyte type control
T2 sequence (Q9N623 whole entry A220S/I356T/K76T/M74I/N326S/N75E/Q271E/R371I): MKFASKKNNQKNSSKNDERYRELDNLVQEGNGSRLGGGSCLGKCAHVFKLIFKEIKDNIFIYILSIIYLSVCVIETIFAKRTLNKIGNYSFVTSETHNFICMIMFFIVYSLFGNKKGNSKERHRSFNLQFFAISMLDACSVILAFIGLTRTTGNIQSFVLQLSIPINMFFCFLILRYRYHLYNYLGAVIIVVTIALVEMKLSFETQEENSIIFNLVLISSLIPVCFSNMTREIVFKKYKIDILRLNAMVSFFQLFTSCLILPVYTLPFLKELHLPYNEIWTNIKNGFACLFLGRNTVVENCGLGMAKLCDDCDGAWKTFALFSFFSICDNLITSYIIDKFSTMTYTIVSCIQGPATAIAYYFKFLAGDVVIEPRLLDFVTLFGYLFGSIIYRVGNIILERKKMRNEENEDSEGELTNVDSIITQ
Method in brief: as §1

[3] = target: PfCRT^3D7 (Plasmodium falciparum, UniProt Q8IBZ9); assay: cell-based; conditions: PfCRT3D7 oocytes, normalised to oocyte type control
PfCRT^3D7, sequence (Q8IBZ9 59-398): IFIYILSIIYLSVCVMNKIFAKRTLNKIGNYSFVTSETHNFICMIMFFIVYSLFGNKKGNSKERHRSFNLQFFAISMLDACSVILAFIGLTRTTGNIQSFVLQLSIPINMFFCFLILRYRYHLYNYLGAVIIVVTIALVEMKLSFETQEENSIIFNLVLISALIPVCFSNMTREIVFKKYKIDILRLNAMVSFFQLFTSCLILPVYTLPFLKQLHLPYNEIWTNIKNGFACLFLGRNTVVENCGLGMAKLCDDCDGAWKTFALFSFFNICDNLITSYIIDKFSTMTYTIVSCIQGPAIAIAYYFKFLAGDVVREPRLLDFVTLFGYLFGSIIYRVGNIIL
Method in brief: (§2)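 Transport measured in Xenopus oocytes expressing the transporters, 1.5 h at 27.5 °C in ND96 pH 5.5 unless noted. For trans-stimulation, VF-6 injected in 25 nL ND96 at pH 5.0–7.0 or Na^+-free (choline) buffer; intracellular levels based on ~400 nL oocyte volume. Ten oocytes per treatment, ≥4 experiments.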

[4] = target: T1, PfCRT^Ecu1110; assay: cell-based; conditions: for PfCRT-mediated [3H]CQ transport, trans-stimulation (% PfCRTEcu1110 control): PfCRTEcu1110 oocytes, normalised to oocyte type control; for [3H]CQ transport (% PfCRTDd2 control), trans-stimulation, PfCRTEcu1110: PfCRT-mediated component (background subtracted), sheet title says normalised to PfCRTDd2 control, mean ± SEM, SEM
Method in brief: as §2

[5] = target: T2, PfCRT^Dd2; assay: cell-based; conditions: for PfCRT-mediated [3H]CQ transport, trans-stimulation (% PfCRTDd2 control): PfCRTDd2 oocytes, normalised to oocyte type control; for [3H]CQ transport (% PfCRTDd2 control), trans-stimulation, PfCRTDd2: PfCRT-mediated component (background subtracted), mean ± SEM, SEM
Method in brief: as §2

[6] = [test solute]i = 5 mM (intracellular)
[7] = [test solute]i = 45 mM (intracellular; 30 mM for some solutes due to solubility)
[8] = [test solute]i = 5 mM (injected)
[9] = [test solute]i = 45 mM (30 mM for some solutes due to solubility)

Substance	PfCRT-mediated [3H]CQ transport, cis-inhibition (% PfCRTEcu1110 control) ([1]; [test solute] = 0.5 mM)	PfCRT-mediated [3H]CQ transport, cis-inhibition (% PfCRTEcu1110 control) ([1]; [test solute] = 1 mM)	PfCRT-mediated [3H]CQ transport, cis-inhibition (% PfCRTEcu1110 control) ([1]; [test solute] = 2 mM)	[3H]CQ transport (% PfCRTEcu1110 control), cis-inhibition, PfCRTEcu1110 ([1]; [test solute] = 2 mM)	PfCRT-mediated [3H]CQ transport, cis-inhibition (% PfCRTDd2 control) ([2]; [test solute] = 0.5 mM)	PfCRT-mediated [3H]CQ transport, cis-inhibition (% PfCRTDd2 control) ([2]; [test solute] = 1 mM)	PfCRT-mediated [3H]CQ transport, cis-inhibition (% PfCRTDd2 control) ([2]; [test solute] = 2 mM)	PfCRT-mediated [3H]CQ transport, trans-stimulation (% PfCRT3D7 control) [3, 6]	PfCRT-mediated [3H]CQ transport, trans-stimulation (% PfCRT3D7 control) [3, 7]	PfCRT-mediated [3H]CQ transport, trans-stimulation (% PfCRTEcu1110 control) [4, 6]	PfCRT-mediated [3H]CQ transport, trans-stimulation (% PfCRTEcu1110 control) [4, 7]	[3H]CQ transport (% PfCRTDd2 control), trans-stimulation, PfCRTEcu1110 [4, 8]	[3H]CQ transport (% PfCRTDd2 control), trans-stimulation, PfCRTEcu1110 [4, 9]	PfCRT-mediated [3H]CQ transport, trans-stimulation (% PfCRTDd2 control) [5, 6]	PfCRT-mediated [3H]CQ transport, trans-stimulation (% PfCRTDd2 control) [5, 7]	[3H]CQ transport (% PfCRTDd2 control), trans-stimulation, PfCRTDd2 [5, 8]	[3H]CQ transport (% PfCRTDd2 control), trans-stimulation, PfCRTDd2 [5, 9]	[3H]CQ transport (% PfCRTEcu1110 control), cis-inhibition, PfCRTEcu1110 ([1]; [test solute] = 0.5 mM)	[3H]CQ transport (% PfCRTEcu1110 control), cis-inhibition, PfCRTEcu1110 ([1]; [test solute] = 1 mM)
HVDPENF [HF-7]	41 ± 1.8 % PfCRTEcu1110 control	31 ± 3.1 % PfCRTEcu1110 control	22 ± 0.4 % PfCRTEcu1110 control	7.0 ± 0.01 % PfCRTEcu1110 control	40 ± 2.3 % PfCRTDd2 control	31 ± 2.3 % PfCRTDd2 control	18 ± 0.6 % PfCRTDd2 control	140 ± 5.2 % PfCRT3D7 control	189 ± 6.2 % PfCRT3D7 control	131 ± 3.7 % PfCRTEcu1110 control	138 ± 4.1 % PfCRTEcu1110 control	40 ± 2.1 % PfCRTEcu1110 control	42 ± 1.5 % PfCRTEcu1110 control	100 ± 1.9 % PfCRTDd2 control	112 ± 1.7 % PfCRTDd2 control	100 ± 1.9 % PfCRTDd2 control	112 ± 1.7 % PfCRTDd2 control		
HVDPENFRL [HL-9]	41 ± 2.5 % PfCRTEcu1110 control	35 ± 2.6 % PfCRTEcu1110 control	28 ± 0.1 % PfCRTEcu1110 control		38 ± 1.0 % PfCRTDd2 control	31 ± 0.3 % PfCRTDd2 control	9 ± 0.8 % PfCRTDd2 control	98 ± 3.5 % PfCRT3D7 control	97 ± 3.1 % PfCRT3D7 control	98 ± 3.6 % PfCRTEcu1110 control	96 ± 2.1 % PfCRTEcu1110 control			97 ± 2.0 % PfCRTDd2 control	98 ± 3.3 % PfCRTDd2 control				
KEEAE [KE-5]		61 ± 1.5 % PfCRTEcu1110 control	54 ± 2.1 % PfCRTEcu1110 control	17 ± 0.3 % PfCRTEcu1110 control	68 ± 3.2 % PfCRTDd2 control	60 ± 4.9 % PfCRTDd2 control	50 ± 1.1 % PfCRTDd2 control	98 ± 3.3 % PfCRT3D7 control	96 ± 2.1 % PfCRT3D7 control	98 ± 3.1 % PfCRTEcu1110 control	98 ± 1.3 % PfCRTEcu1110 control	30 ± 1.5 % PfCRTEcu1110 control	30 ± 1.3 % PfCRTEcu1110 control	97 ± 4.2 % PfCRTDd2 control	99 ± 3.2 % PfCRTDd2 control	97 ± 4.2 % PfCRTDd2 control	99 ± 3.2 % PfCRTDd2 control	21 ± 0.4 % PfCRTEcu1110 control	19 ± 0.3 % PfCRTEcu1110 control
KEFTPPVQA [KA-9]	48 ± 2.1 % PfCRTEcu1110 control	41 ± 2.1 % PfCRTEcu1110 control	30 ± 1.1 % PfCRTEcu1110 control		48 ± 2.0 % PfCRTDd2 control	32 ± 2.1 % PfCRTDd2 control	7 ± 0.1 % PfCRTDd2 control	130 ± 2.2 % PfCRT3D7 control	160 ± 3.9 % PfCRT3D7 control	98 ± 2.8 % PfCRTEcu1110 control	98 ± 2.0 % PfCRTEcu1110 control			98 ± 2.2 % PfCRTDd2 control	98 ± 1.7 % PfCRTDd2 control				
LDNLK [LK-5]	40 ± 1.4 % PfCRTEcu1110 control	30 ± 1.9 % PfCRTEcu1110 control	21 ± 1.9 % PfCRTEcu1110 control	7.0 ± 0.03 % PfCRTEcu1110 control	31 ± 1.4 % PfCRTDd2 control	21 ± 1.9 % PfCRTDd2 control	13 ± 0.7 % PfCRTDd2 control	127 ± 4.2 % PfCRT3D7 control	180 ± 7.2 % PfCRT3D7 control	97 ± 4.2 % PfCRTEcu1110 control	136 ± 5.1 % PfCRTEcu1110 control	29 ± 1.4 % PfCRTEcu1110 control	41 ± 2.1 % PfCRTEcu1110 control	100 ± 1.3 % PfCRTDd2 control	94 ± 3.2 % PfCRTDd2 control	100 ± 1.3 % PfCRTDd2 control	94 ± 3.2 % PfCRTDd2 control	13 ± 0.1 % PfCRTEcu1110 control	9.0 ± 0.03 % PfCRTEcu1110 control
